Measurements taken from US6548543B1, “Remedies or preventives containing cyclopentenone compounds as the active ingredient” (Takara Shuzo Co., Ltd., priority 1998, dated 2003).

Legend:
topoisomerase II = target: T1, topoisomerase II (Homo sapiens, UniProt P11388); test: Topoisomerase II inhibition, pBR322 DNA relaxation; assay type: biochemical; conditions: 37° C., 30 minutes
T1 construct: purchased TopoGEN
Procedure: (1) 2 μl of topoisomerase II (TopoGEN; 2 units/μl), 2 μl of 10-fold concentrated buffer [0.5 M Tris-HCl (pH 8.0), 1.2 M KCl, 0.1 M MgCl2, 2.5 mM adenosine triphosphate, 5 mM dithiothreitol], 2 μl of 0.1% bovine serum albumin (Takara Shuzo), 11 μl of distilled water and 2 μl of distilled water (control) or 2 μl of one of aqueous solutions of dipropionylcyclopentenone, diisobutyrylcyclopentenone, dibenzoylcyclopentenone, dihexanoylcyclopentenone, di-2-hexenoylcyclopentenone, dimethoxyacetylcyclopentenone, dimethylfumarylcyclopentenone or dimethylmaleylcyclopentenone at varying concentrations were mixed together. 1 μl of 0.25 μg/μl pBR322 DNA (Takara Shuzo) was added thereto. The resulting mixture was reacted at 37° C. After reacting for 30 minutes, 2 μl of an aqueous solution containing 1% sodium dodecyl sulfate, 50% glycerol and 0.02% Bromophenol Blue was added thereto to stop the reaction.
20 μl of the reaction mixture was applied to 1% agarose gel prepared using agarose L03 (Takara Shuzo) and TAE buffer [40 mM Tris, 5 mM sodium acetate, 1 mm ethylenediaminetetraacetic acid disodium salt (EDTA); adjusted to pH 7.8 using acetic acid] and electrophoresed in TAE buffer. After electrophoresis, the gel was soaked in a 1 μg/ml aqueous ethidium bromide solution. The gel was exposed to ultraviolet rays to visualize the electophoretic pattern of DNA.

[1] = test system: Candida albicans TIMM0136; test: Antifungal activity, growth inhibition; assay type: cell-based; conditions: 10 μl of solution at 100 or 500 μg/ml added to 100 μl culture; 30° C., 48 hours
Procedure: Dipropionylcyclopentenone, diisobutyrylcyclopentenone and di-2-hexenoylcyclopentenone were used to examine their antifungal activities against Candida albicans TIMM0136.
Candida albicans cells were cultured overnight in YNBG medium containing 0.67% Yeast Nitrogen Base (Difco) and 1.0% glucose (seed culture). The culture was then diluted with fresh Yeast Nitrogen Base medium to a concentration of 1×10^6 cells/ml. 100 μl of the dilution was dispensed into each well of a 96-well microtiter plate.
10 μl each of solutions of dipropionylcyclopentenone, diisobutyrylcyclopentenone or di-2-hexenoylcyclopentenone in 70% ethanol at a concentration of 100 μg/ml or 500 μg/ml, or 10 μl of 70% ethanol solution was added to the well. The plate was incubated without shaking at 30° C. for 48 hours (main culture).

[2] = test system: λ-carrageenan pedal edema; test: Carrageenan induced pedal edema; assay type: in vivo, Lewis rats; conditions: rat, 3 hours after carrageenan
Procedure: Lewis rats (male, 9 weeks old, weighing about 250 g) were purchased from Seac Yoshitomi.
Rats were fasted from 18 hours before the start of the experiments. Dipropionylcyclopentenone, dihexanoylcyclopentenone, di-2-hexenoylcyclopentenone, diisobutyrylcyclopentenone or dibenzoylcyclopentenone dissolved in olive oil (Nacalai Tesque) was orally administered to 4 rats per group at 1 or 10 mg/10 ml/kg.
100 μl of 1% λ-carrageenan (Wako Pure Chemical Industries) suspension in saline (Otsuka Pharmaceutical) was injected into the sole of right paw of a rat 0.5 hour after the administration of test substance to induce pedal edema. The volume of the right foot of the rat was measured using an instrument for measuring pedal volume (Ugo Basile) 3 hours after the injection with carrageenan. The measurements were expressed as the rate of increase calculated based on the volume of the right foot of each rat measured before the administration with carrageenan.
FIG. 5 illustrate the relationship between the amount of cyclopentenone derivative administered and the rate of increase in edema in foot. The horizontal axis represents the dose […] and the vertical axis represents the rate of increase (%).

[3] = test system: spleen lymphocytes stimulated with Con A; test: Lymphocyte blastogenesis stimulated with Con A, 3H-thymidine uptake; assay type: cell-based, ddY mouse; conditions: 10 μM
Procedure: (1) A spleen was taken out from ddY mouse (male, 7 weeks old, purchased from Japan SLC), finely minced and suspended in RPMI-1640 medium containing 10% FCS (HyClone) to obtain a single cell suspension. The cell suspension was seeded into a plastic Petri dish and cultured at 37° C. for 2 hours in a CO2 incubator to remove adhesive cells adhered to the dish. Non-adhesive cells were used as spleen lymphocytes. 200 μl of suspension of the spleen lymphocytes at a cell concentration of 2×10^6/ml was seeded into each well of a 96-well microtiter plate. Dipropionylcyclopentenone at a varying concentration was added to each well other than the control well. Furthermore, 5 μg of Con A (Nacalai Tesque) was added to each well. The plate was incubated at 37° C. for 1 day in a CO2 incubator. After incubation, 1 μCi of ^3H-thymidine was added to each well. After culturing for additional 1 day, the uptake into cells was measured using a liquid scintillation counter.
FIG. 7 illustrates the relationship between the concentration of dipropionylcyclopentenone and the amount of ^3H-thymidine uptake. The horizontal axis represents dipropionylcyclopentenone concentration (μM) and the vertical axis represents the ^3H-thymidine uptake (CPM). The open bar represents the ^3H-thymidine uptake without stimulation.

[4] = test system: Ehrlich ascites carcinoma (EAC); test: Ascitic cancer EAC, prolongation of survival; assay type: in vivo, ddY mouse; conditions: 5 successive days; for 30-day survival number: groups of 8 mice
Procedure: (3) The carcinostatic activities of dipropionylcyclopentenone and diisobutyrylcyclopentenone against various ascitic cancers were examined using two types of cancer cells, Ehrlich ascites carcinoma (EAC) and Meth A, administered intraperitoneally or orally at a varying dose.
Dipropionylcyclopentenone or diisobutyrylcyclopentenone was intraperitoneally or orally administered for 5 successive days from the day after the transplantation with cancer cells. Injectable distilled water was administered to a control group in a similar manner. Average days of survival, prolongation rate and 30-day survival number were calculated for groups each consisting of 8 mice.

[5] = Single oral dose toxicity; assay type: in vivo; conditions: mouse, oral, single dosage of 100 mg/kg
Procedure: No toxicity is observed when a physiologically effective amount of the cyclopentenone derivative or an optical isomer thereof, or a salt thereof obtained according to the present invention is administered.

T1 sequence (P11388 whole entry): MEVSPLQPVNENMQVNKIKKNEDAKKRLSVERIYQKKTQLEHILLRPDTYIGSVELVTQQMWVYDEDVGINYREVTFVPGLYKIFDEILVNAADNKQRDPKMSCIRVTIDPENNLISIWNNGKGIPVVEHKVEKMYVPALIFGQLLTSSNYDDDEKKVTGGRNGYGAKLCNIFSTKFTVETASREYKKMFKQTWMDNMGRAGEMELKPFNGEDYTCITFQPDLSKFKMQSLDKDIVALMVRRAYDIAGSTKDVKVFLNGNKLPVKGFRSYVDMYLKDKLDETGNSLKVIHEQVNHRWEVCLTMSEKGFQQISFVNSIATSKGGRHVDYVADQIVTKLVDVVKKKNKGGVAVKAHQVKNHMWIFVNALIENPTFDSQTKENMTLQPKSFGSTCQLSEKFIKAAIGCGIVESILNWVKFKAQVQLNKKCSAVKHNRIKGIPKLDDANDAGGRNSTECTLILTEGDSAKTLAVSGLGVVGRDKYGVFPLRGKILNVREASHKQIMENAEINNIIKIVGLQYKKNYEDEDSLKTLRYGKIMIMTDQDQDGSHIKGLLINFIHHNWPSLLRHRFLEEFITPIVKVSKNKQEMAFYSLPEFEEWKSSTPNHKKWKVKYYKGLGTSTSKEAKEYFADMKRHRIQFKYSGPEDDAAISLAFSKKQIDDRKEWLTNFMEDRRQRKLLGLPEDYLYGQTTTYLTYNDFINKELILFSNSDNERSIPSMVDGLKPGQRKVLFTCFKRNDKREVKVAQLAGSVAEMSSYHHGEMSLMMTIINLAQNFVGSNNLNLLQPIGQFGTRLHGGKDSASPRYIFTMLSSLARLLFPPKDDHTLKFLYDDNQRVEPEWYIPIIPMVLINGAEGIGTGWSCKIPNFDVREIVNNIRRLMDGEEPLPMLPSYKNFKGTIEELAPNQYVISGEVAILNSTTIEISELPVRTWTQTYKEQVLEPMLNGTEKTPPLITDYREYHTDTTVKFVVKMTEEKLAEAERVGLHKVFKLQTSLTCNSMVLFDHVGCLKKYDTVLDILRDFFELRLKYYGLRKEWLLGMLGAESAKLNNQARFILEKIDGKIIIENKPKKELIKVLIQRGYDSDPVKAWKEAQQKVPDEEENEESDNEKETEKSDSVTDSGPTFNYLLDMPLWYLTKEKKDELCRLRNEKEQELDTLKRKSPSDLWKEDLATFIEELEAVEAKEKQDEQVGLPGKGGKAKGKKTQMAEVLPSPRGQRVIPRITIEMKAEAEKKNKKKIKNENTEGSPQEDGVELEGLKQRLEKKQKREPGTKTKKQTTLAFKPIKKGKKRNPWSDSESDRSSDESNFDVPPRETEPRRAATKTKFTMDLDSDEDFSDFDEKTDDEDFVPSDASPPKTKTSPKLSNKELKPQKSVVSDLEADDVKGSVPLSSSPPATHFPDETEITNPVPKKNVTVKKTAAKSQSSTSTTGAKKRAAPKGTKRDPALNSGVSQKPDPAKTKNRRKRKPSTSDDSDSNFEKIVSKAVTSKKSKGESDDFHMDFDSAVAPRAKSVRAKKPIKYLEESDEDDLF

Q: Which “Concentration at which change of DNA from superhelical type to relaxed type was partially or completely inhibited” value (topoisomerase II) does the source give for CCC(=O)OC1C=CC(=O)C1OC(=O)CC (stereo not drawn) here?
A: ≥ 0.1 µM

Q: And the “Minimum growth inhibitory concentration” value [1]?
A: 500 µg/mL

Q: And the “Suppression of edema in foot (FIG. 5)” value ([2]; 1 mg/kg oral)?
A: Tendency to suppress the edema in the foot

Q: And the “Suppression of edema in foot (FIG. 5)” value ([2]; 10 mg/kg oral)?
A: significant suppression

Q: What about the “Inhibition of proliferation of mouse lymphocytes stimulated with Con A (FIG. 7)” value [3] of the same compound?
A: almost completely inhibited

Q: And the “Average days of survival” value ([4]; intraperitoneal 10 mg/kg)?
A: 28.1 days

Q: And the Prolongation rate ([4]; intraperitoneal 10 mg/kg)?
A: >225%

Q: What about the 30-day survival number ([4]; intraperitoneal 10 mg/kg) of the same compound?
A: 6

Q: And the “Average days of survival” value ([4]; oral 30 mg/kg)?
A: 24.1 days

Q: What about the Prolongation rate ([4]; oral 30 mg/kg) of the same compound?
A: >193%

Q: What about the 30-day survival number ([4]; oral 30 mg/kg) of the same compound?
A: 4

Q: And the “Death after single oral administration” value [5]?
A: no death was observed
